Data as given in PMC5547389, “Structure-activity relationships and molecular docking studies of chromene and chromene based azo chromophores: A novel series of potent antimicrobial and anticancer agents” (EXCLI Journal, 2017).
Converted amounts (≈) assume the structure as drawn.

How the values were obtained:
HCT-116, MCF-7, HEPG-2 = assay: Cytotoxic screening, statements over the three cell lines; format: cell-based; settings: Homo sapiens; HCT-116, MCF-7, HEPG-2 together; read-out: IC50, range over the three cell lines
Description: Human colon carcinoma (HCT-116), human hepatocellular carcinoma (HEPG-2), adenocarcinomic human alveolar basal epithelial cell (A-549), and human breast adenocarcinoma (MCF-7) cell lines were obtained from the American Type Culture Collection (ATCC, Rockville, MD). The cells were grown on RPMI-1640 medium supplemented with 10 % inactivated fetal calf serum and 50 µg/ml gentamycin. The cells were maintained at 37 °C in a humidified atmosphere with 5 % CO2 and were subcultured two to three times a week. Potential cytotoxicity of the compounds was evaluated on tumor cells using the method of Gangadevi and Muthumary (2007[21]) (Klancnik et al., 2010[36]). The cells were grown as monolayers in growth RPMI-1640. The monolayers of 104 cells adhered at the bottom of the wells in a 96-well microtiter plate incubated for 24 h at 37 °C in a humidified incubator with 5 % CO2. The monolayers were then washed with sterile phosphate buffered saline (0.01 M pH 7.2) and simultaneously the cells were treated with 100 µL from different dilutions of tested sample in fresh maintenance medium and incubated at 37 °C. A control of untreated cells was made in the absence of tested sample. Positive controls containing doxorubicin were also tested as a reference drug for comparison. Six wells were used for each concentration of the test sample. Every 24 hours an observation under the inverted microscope was made. The number of the surviving cells was determined by staining the cells with crystal violet (Mosmann, 1983[42]; Gangadevi and Muthumary, 2007[21]) followed by cell lysing using 33 % glacial acetic acid and reading the absorbance at 590 nm using microplate reader (SunRise, TECAN, Inc, USA) after well mixing. The absorbance values from untreated cells were considered as 100 % proliferation. The number of viable cells was determined using microplate reader as previously mentioned before and the percentage of […] was calculated as [1-(ODt/ODc)] x 100 % where ODt is the mean optical density of wells treated with the tested sample and ODc is the mean optical density of untreated cells. The relation between surviving cells and drug concentration was plotted to get the survival curve of each tumor cell line after treatment with the specified compound. The 50 % inhibitory concentration (IC50), the concentration required to cause toxic effects in 50 % of intact cells, was estimated from graphic plots.
The in vitro cytotoxic activity was performed by MTT assay (Mosmann, 1983[42]; Alley et al., 1988[6]) against three human carcinoma cell lines: Human colon carcinoma (HCT-116), human breast adenocarcinoma (MCF-7), and human hepatocellular carcinoma (HEPG-2).

[1] = system: Syncephalastrum racemosum (RCMB 05922); assay: MIC by serial dilution method; format: cell-based; settings: RCMB05922, fungi, read-out: Minimum inhibitory concentration, MIC, S.R
Description: (§1) All the newly synthesized compounds described in this report were screened for both antibacterial and antifungal activity via the reported agar diffusion well method (Vanden Berghe and Vlietinck, 1991[62]). The inhibition zones and minimum inhibitory concentrations (MIC) were determined by the serial dilution method (Cappuccino and Sherman, 1999[12]). The antimicrobial activity of the synthesized compounds was tested against a broad panel of microorganisms including two Gram-positive bacteria: Streptococcus pneumoniae (RCMB 010010) and Bacillus subtilis (RCMB 010067), two Gram-negative bacteria: Pseudomonas aeruginosa (RCMB 010043) and Escherichia coli (RCMB 010052), and four fungi: Aspergillus fumigatus (RCMB 02568), Syncephalastrum racemosum (RCMB 05922), Geotricum candidum (RCMB 05097), and Candida albicans (RCMB 05036). Ampicillin, ciprofloxacin, gentamicin and amphotericin B were used as positive control drugs (Atta-ur-Rahman and Thomsen, 2001[7]; Smania et al., 1999[57]). […] While in the case of Gm-ve bacteria, they had weak activity. In addition, certain strains of fungi were sensitive to tested compounds with an IZ range from 12-25 except Candida albicans.

[2] = system: Escherichia coli (RCMB 010052); assay: MIC by serial dilution method; format: cell-based; settings: RCMB010052, Gm-ve, read-out: Minimum inhibitory concentration, MIC, E.C
Description: as §1

[3] = system: Aspergillus fumigatus (RCMB 02568); assay: MIC by serial dilution method; format: cell-based; settings: RCMB02568, fungi, read-out: Minimum inhibitory concentration, MIC, A.F
Description: as §1

[4] = system: Bacillus subtilis (RCMB 010067); assay: MIC by serial dilution method; format: cell-based; settings: RCMB010067, Gm+ve, read-out: Minimum inhibitory concentration, MIC, B.S
Description: as §1

[5] = system: Streptococcus pneumoniae (RCMB 010010); assay: MIC by serial dilution method; format: cell-based; settings: RCMB010010, Gm+ve, read-out: Minimum inhibitory concentration, MIC, S.P
Description: as §1

[6] = system: human hepatocellular carcinoma (HEPG-2); assay: Cytotoxic screening; format: cell-based; settings: HepG2, read-out: IC50 HepG-2
Method in brief: (§2)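 Read-out is crystal violet staining (the text also names MTT), lysis in 33 % acetic acid, A590, with untreated cells as 100 %. IC50 was estimated graphically from survival curves.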

[7] = system: human breast adenocarcinoma (MCF-7); assay: Cytotoxic screening; format: cell-based; settings: Homo sapiens, MCF7; read-out: IC50 MCF-7
Method in brief: as §2

[8] = system: Human colon carcinoma (HCT-116); assay: Cytotoxic screening; format: cell-based; settings: Homo sapiens, HCT-116; read-out: IC50 HCT-116
Method in brief: as §2

[9] = system: Geotricum candidum (RCMB 05097); assay: MIC by serial dilution method; format: cell-based; settings: fungi; read-out: Minimum inhibitory concentration, MIC, G.C
Description: as §1

MIC [9] [µg/mL] | SMILES | melting point [°C] | IC50 (HCT-116, MCF-7, HEPG-2) [µg/mL] | MIC [1] [µg/mL] | MIC [2] [µg/mL] | MIC [3] [µg/mL] | MIC [4] [µg/mL] | MIC [5] [µg/mL] | IC50 [6] [µg/mL] | IC50 [7] [µg/mL] | IC50 [8] [µg/mL]
 | N#CC1=C(N)Oc2c(N)cc3ccccc3c2C1c1ccc(F)cc1 (centres unmarked) [4a, 3,5-diamino-1-(4-fluorophenyl)-1H-benzo[f]chromene-2-carbonitrile] | 193 | 0.3 to 2 (≈ 0.905 to 6.04 µM) | 7.81 (≈ 23.6 µM) | 7.81 (≈ 23.6 µM) | 15.6 (≈ 47.2 µM) | 3.9 (≈ 11.8 µM) | 15.6 (≈ 47.2 µM) | 0.3 (≈ 0.905 µM) | 1 (≈ 3.02 µM) | 1 (≈ 3.02 µM)
0.03 (≈ 0.0863 µM) | N#CC1=C(N)Oc2c(N)cc3ccccc3c2C1c1ccc(Cl)cc1 (centres unmarked) [4b, 3,5-diamino-1-(4-chlorophenyl)-1H-benzo[f]chromene-2-carbonitrile] | 187 | 0.3 to 2 (≈ 0.863 to 5.75 µM) | 31.2 (≈ 89.8 µM) | 15.6 (≈ 44.9 µM) | 0.24 (≈ 0.69 µM) | 0.007 (≈ 0.0201 µM) | 0.49 (≈ 1.41 µM) | 1 (≈ 2.88 µM) | 1 (≈ 2.88 µM) | 1.1 (≈ 3.16 µM)
7.81 (≈ 23.9 µM) | Cc1ccc(C2C(C#N)=C(N)Oc3c(N)cc4ccccc4c32)cc1 (centres unmarked) [4c, 3,5-diamino-1-(p-tolyl)-1H-benzo[f]chromene-2-carbonitrile] | 180 | 0.3 to 2 (≈ 0.916 to 6.11 µM) | 31.2 (≈ 95.5 µM) | 62.5 (≈ 191 µM) | 3.9 (≈ 11.9 µM) | 7.81 (≈ 23.9 µM) | 7.81 (≈ 23.9 µM) | 0.3 (≈ 0.916 µM) | 0.8 (≈ 2.44 µM) | 1.1 (≈ 3.36 µM)
 | N#CC1=C(N)Oc2c(ccc3c(N)cccc23)C1c1ccc(F)cc1 (centres unmarked) [7c] |  | 0.3 to 2 (≈ 0.905 to 6.04 µM) |  |  |  |  |  | 0.7 (≈ 2.11 µM) | 1.4 (≈ 4.23 µM) | 2 (≈ 6.04 µM)

SMILES | MIC [9] [µg/mL] | melting point [°C] | IC50 (HCT-116, MCF-7, HEPG-2) [µg/mL] | MIC [1] [µg/mL] | MIC [2] [µg/mL] | MIC [3] [µg/mL] | MIC [4] [µg/mL] | MIC [5] [µg/mL] | IC50 [6] [µg/mL] | IC50 [7] [µg/mL] | IC50 [8] [µg/mL]
COc1ccc(N=Nc2cc3c(cc2O)OC(N)=C(C#N)C3c2ccc(F)cc2)cc1 (centres unmarked) [13b, 2-Amino-4-(4-fluoro-phenyl)-7-hydroxy-6-(4-methoxy-phenylazo)-4H-chromene-3-carbonitrile] | 31.2 (≈ 74.9 µM) | 272 | 2.41 to 5.4 (≈ 5.79 to 13 µM) | 62.5 (≈ 150 µM) | 15.6 (≈ 37.5 µM) | 62.5 (≈ 150 µM) | 3.9 (≈ 9.37 µM) | 31.2 (≈ 75 µM) | 5.4 (≈ 13 µM) | 3.78 (≈ 9.08 µM) | 2.41 (≈ 5.79 µM)
